Active and inactive are the calls of the source. The rule behind the calls is not given here. Positions of bridges follow the written chain, without caps; N, C: chain ends. Non-standard residues stand in square brackets, D forms with d. Residues, ends and D or L forms follow the SMILES beside them. AllylGly = C=CC[C@H](N)C(=O)O
Legend:
[1] = target: T1, Nicotinic acetylcholine receptor alpha9/alpha10 (Rattus norvegicus) (UniProt P43144+Q9JLB5); experiment: (§1) Inhibition of rat alpha9alpha10 nAChR expressed in Xenopus oocytes assessed as inhibition of Ach-evoked current after 5 mins by voltage-clamp technique; format: cell-based
[2] = target: Voltage-dependent N-type calcium channel subunit alpha-1B (Rattus norvegicus) (UniProt Q02294); experiment: Inhibition of N-type Ca channel in Wistar rat DRG neuron at 100 nM by whole cell patch clamp technique relative to control
[3] = target: T2, GABA-B receptor (Homo sapiens) (UniProt Q9UBS5+O75899); experiment: Inhibition of human GABAB R1/R2 receptor expressed in HEK293 cells co-expressing human Cav2.2 alpha1B/alpha2delta1/beta3 channel assessed as inhibition of depolarization-activated Ba2+ current at 200 nM by whole cell patch clamp technique relative to control; format: cell-based
[4] = target: T3, Neuronal acetylcholine receptor subunit alpha-7 (Homo sapiens, UniProt P36544); experiment: Inhibition of human alpha7 nAChR expressed in Xenopus oocytes assessed as inhibition of Ach-evoked current after 5 mins by voltage-clamp technique; format: cell-based
[5] = target: Nicotinic acetylcholine receptor alpha9/alpha10 (Rattus norvegicus, UniProt P43144+Q9JLB5); experiment: as §1; format: cell-based
[6] = target: Voltage-dependent N-type calcium channel subunit alpha-1B (Rattus norvegicus) (UniProt Q02294); experiment: Inhibition of N-type Ca channel in Wistar rat DRG neuron at 1 nM by whole cell patch clamp technique relative to control
[7] = target: T2, GABA-B receptor (Homo sapiens); experiment: Inhibition of human GABAB R1/R2 receptor expressed in HEK293 cells co-expressing human Cav2.2 alpha1B/alpha2delta1/beta3 channel assessed as inhibition of depolarization-activated Ba2+ current at 1 uM by whole cell patch clamp technique relative to control; format: cell-based
[8] = target: T1, Nicotinic acetylcholine receptor alpha9/alpha10 (Rattus norvegicus); experiment: Inhibition of rat alpha9alpha10 nAChR expressed in Xenopus oocytes assessed as inhibition of Ach-evoked current at 3 uM after 5 mins by voltage-clamp technique; format: cell-based
[9] = target: T3, Neuronal acetylcholine receptor subunit alpha-7; experiment: Inhibition of human alpha7 nAChR expressed in Xenopus oocytes assessed as inhibition of Ach-evoked current at 3 uM after 5 mins by voltage-clamp technique; format: cell-based
[10] = target: T1, Nicotinic acetylcholine receptor alpha9/alpha10 (Rattus norvegicus); experiment: Inhibition of rat alpha9alpha10 nAChR expressed in Xenopus oocytes assessed as inhibition of Ach-evoked current at 30 uM after 5 mins by voltage-clamp technique; format: cell-based
[11] = target: T4, Voltage-dependent N-type calcium channel subunit alpha-1B/Voltage-dependent calcium channel subunit alpha-2/delta-1/Voltage-dependent L-type calcium channel subunit beta-3 (Homo sapiens) (UniProt P54289+Q00975+P54284); experiment: Inhibition of human GABAB R1/R2 receptor expressed in HEK293 cells co-expressing human Cav2.2 alpha1B/alpha2delta1/beta3 channel assessed as inhibition of depolarization-activated Ba2+ current at 50 uM followed by compound washout by whole cell patch clamp technique relative to control; format: cell-based
[12] = Metabolic stability in human serum assessed as compound remaining at 3 mM after 24 hrs by RP-HPLC analysis; format: ADME, cell-free; settings: read-out: Stability
[13] = target: T2, GABA-B receptor (Homo sapiens); experiment: Inhibition of human GABAB R1/R2 receptor expressed in HEK293 cells co-expressing human Cav2.2 alpha1B/alpha2delta1/beta3 channel assessed as inhibition of depolarization-activated Ba2+ current at 1 uM followed by compound washout by whole cell patch clamp technique relative to control; format: cell-based
[14] = target: T2, GABA-B receptor (Homo sapiens); experiment: Inhibition of human GABAB R1/R2 receptor expressed in HEK293 cells co-expressing human Cav2.2 alpha1B/alpha2delta1/beta3 channel assessed as inhibition of depolarization-activated Ba2+ current depolarization-activated Ba2+ current at 50 uM by whole cell patch clamp technique relative to control; format: cell-based
[15] = target: T2, GABA-B receptor (Homo sapiens); experiment: Inhibition of human GABAB R1/R2 receptor expressed in HEK293 cells co-expressing human Cav2.2 alpha1B/alpha2delta1/beta3 channel assessed as inhibition of depolarization-activated Ba2+ current by whole cell patch clamp technique relative to control; format: cell-based
[16] = Metabolic stability in human serum assessed as compound remaining at 3 mM after 1 hr by RP-HPLC analysis; format: ADME, cell-free; settings: read-out: Stability
[17] = target: T4, Voltage-dependent N-type calcium channel subunit alpha-1B/Voltage-dependent calcium channel subunit alpha-2/delta-1/Voltage-dependent L-type calcium channel subunit beta-3 (Homo sapiens); experiment: Inhibition of human Cav2.2 alpha1B/alpha2delta1/beta3 channel expressed in HEK293 cells assessed as inhibition of depolarization-activated Ba2+ current at 1 uM by whole cell patch clamp technique relative to control; format: cell-based

Sequence of Voltage-dependent N-type calcium channel subunit alpha-1B (Rattus norvegicus) (Q02294 whole entry, looked up): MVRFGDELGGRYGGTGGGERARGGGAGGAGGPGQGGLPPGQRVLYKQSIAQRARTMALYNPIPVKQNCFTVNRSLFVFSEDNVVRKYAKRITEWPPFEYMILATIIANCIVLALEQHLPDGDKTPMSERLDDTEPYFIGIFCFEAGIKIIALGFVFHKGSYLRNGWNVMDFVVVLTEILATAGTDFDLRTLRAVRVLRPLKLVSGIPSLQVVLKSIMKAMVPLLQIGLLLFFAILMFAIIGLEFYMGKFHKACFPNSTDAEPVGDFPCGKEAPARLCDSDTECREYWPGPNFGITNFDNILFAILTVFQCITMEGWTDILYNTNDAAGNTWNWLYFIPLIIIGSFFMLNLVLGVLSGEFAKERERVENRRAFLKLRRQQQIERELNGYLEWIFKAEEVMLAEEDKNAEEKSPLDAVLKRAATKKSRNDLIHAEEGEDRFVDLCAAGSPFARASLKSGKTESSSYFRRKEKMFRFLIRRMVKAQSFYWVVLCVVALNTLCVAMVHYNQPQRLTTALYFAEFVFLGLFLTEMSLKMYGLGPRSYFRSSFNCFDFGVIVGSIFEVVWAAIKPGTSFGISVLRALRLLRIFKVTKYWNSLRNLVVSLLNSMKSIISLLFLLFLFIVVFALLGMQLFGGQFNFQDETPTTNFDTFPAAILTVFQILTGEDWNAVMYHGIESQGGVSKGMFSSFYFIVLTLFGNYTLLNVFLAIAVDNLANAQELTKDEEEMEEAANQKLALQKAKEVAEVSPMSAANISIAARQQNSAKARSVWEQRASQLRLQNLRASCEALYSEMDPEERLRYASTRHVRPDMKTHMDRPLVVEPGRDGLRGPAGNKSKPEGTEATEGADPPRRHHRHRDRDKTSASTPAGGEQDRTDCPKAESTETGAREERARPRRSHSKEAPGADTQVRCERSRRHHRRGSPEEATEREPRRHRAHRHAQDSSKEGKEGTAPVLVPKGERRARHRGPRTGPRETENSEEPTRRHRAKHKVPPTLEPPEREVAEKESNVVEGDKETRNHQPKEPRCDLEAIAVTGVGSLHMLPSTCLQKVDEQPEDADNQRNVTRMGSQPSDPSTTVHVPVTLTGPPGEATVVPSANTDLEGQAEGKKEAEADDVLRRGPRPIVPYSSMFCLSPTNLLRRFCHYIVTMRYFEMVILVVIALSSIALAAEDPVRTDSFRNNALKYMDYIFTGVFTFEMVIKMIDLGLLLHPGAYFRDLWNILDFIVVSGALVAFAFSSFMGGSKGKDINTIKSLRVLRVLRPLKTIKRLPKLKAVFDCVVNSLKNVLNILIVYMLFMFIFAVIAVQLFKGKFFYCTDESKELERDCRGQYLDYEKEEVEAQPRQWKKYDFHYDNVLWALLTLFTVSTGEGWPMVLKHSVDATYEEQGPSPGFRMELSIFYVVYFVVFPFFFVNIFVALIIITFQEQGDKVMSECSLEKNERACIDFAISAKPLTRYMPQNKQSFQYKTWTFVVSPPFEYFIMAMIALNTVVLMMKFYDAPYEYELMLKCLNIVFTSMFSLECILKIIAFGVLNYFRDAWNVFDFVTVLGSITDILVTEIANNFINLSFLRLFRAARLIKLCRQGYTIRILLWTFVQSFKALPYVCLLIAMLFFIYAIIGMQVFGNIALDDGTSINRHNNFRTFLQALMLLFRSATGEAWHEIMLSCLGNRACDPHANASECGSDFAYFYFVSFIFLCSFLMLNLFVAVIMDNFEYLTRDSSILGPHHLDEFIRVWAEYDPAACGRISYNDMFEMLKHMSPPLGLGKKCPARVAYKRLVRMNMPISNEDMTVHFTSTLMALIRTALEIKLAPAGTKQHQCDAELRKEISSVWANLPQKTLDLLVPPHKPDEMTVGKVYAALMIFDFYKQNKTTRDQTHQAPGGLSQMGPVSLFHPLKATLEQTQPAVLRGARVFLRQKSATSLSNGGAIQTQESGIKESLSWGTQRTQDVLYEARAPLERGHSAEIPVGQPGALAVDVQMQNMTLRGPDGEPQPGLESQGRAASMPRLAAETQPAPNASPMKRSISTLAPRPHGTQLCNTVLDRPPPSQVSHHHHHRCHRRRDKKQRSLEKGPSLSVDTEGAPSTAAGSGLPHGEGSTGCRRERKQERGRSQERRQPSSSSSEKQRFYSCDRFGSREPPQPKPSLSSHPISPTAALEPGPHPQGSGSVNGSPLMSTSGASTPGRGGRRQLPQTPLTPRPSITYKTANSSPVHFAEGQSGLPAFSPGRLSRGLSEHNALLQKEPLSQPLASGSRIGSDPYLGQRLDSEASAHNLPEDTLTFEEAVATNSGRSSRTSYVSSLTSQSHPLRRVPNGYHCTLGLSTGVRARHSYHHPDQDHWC
T3 sequence (P36544 whole entry): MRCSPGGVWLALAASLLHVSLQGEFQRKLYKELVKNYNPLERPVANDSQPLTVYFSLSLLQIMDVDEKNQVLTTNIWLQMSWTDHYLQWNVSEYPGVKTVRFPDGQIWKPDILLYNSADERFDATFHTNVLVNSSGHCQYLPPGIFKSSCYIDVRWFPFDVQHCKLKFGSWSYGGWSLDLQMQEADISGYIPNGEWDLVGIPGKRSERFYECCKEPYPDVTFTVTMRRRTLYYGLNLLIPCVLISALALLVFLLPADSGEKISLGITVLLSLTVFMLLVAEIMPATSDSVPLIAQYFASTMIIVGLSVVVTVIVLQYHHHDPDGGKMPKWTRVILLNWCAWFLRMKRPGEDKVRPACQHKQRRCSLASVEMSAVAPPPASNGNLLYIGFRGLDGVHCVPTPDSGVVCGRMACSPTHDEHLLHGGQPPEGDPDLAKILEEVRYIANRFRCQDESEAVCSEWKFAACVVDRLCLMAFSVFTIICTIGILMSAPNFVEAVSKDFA
Sequence of Nicotinic acetylcholine receptor alpha9/alpha10 (P43144 whole entry): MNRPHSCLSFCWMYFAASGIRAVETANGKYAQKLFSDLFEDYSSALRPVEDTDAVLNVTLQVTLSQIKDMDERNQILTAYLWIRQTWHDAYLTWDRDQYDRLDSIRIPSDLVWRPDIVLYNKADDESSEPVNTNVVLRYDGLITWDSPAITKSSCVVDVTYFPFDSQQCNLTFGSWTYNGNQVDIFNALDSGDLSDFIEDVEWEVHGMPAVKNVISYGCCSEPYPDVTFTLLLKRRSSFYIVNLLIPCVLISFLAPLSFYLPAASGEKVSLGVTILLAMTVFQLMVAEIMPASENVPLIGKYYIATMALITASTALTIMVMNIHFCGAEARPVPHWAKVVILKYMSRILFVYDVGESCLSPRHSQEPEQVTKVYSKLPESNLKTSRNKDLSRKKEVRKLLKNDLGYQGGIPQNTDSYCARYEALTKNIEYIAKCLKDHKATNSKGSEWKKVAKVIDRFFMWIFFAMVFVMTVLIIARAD
Sequence of Nicotinic acetylcholine receptor alpha9/alpha10 (Q9JLB5 whole entry): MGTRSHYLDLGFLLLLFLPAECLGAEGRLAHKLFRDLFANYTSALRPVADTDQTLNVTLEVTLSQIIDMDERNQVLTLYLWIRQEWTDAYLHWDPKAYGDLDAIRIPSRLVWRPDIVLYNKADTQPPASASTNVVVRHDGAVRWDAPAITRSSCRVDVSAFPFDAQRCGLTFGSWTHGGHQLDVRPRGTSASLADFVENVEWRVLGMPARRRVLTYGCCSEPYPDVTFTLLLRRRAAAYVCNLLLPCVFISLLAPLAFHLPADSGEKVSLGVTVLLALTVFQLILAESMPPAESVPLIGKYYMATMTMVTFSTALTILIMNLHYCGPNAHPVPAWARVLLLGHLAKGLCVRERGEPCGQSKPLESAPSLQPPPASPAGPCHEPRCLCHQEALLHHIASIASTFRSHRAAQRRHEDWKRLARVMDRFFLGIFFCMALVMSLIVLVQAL

Question: Which inhibition [1] does the source give for `N=C(N)NCCC[C@H](NC(=O)[C@@H]1CSSC[C@@H]2NC(=O)[C@@H](NC(=O)CN)CSSC[C@H](NC(=O)[C@H](CCCNC(=N)N)NC(=O)[C@@H]3CCCN3C(=O)[C@H](CC(=O)O)NC(=O)[C@H](CO)NC2=O)C(=O)N[C@@H](CCCNC(=N)N)C(=O)N[C@@H](Cc2ccc(O)cc2)C(=O)N[C@@H](CCCNC(=N)N)C(=O)N1)C(=O)O` here?
Answer: Dose-dependent effect

Question: What about the inhibition [2] of the same molecule?
Answer: 60.6%

Question: And the inhibition [3]?
Answer: 20%

Question: And the IC50 [4]?
Answer: 3300 nM

Question: And the inhibition [4]?
Answer: Dose-dependent effect

Question: With `N=C(N)NCCC[C@H](NC(=O)[C@@H]1C/C=C/C[C@@H]2NC(=O)[C@@H](NC(=O)CN)CSSC[C@H](NC(=O)[C@H](CCCNC(=N)N)NC(=O)[C@@H]3CCCN3C(=O)[C@H](CC(=O)O)NC(=O)[C@H](CO)NC2=O)C(=O)N[C@@H](CCCNC(=N)N)C(=O)N[C@@H](Cc2ccc(O)cc2)C(=O)N[C@@H](CCCNC(=N)N)C(=O)N1)C(=O)O` (H-GC[AllylGly]SDPRCRYR[AllylGly]R-OH; disulfide 2-8; staple (E) 3-12) as the molecule, how does the IC50 [5] read?
Answer: 1150 nM

Question: What about the inhibition [6] of the same molecule?
Answer: inactive

Question: And the IC50 [4]?
Answer: 3950 nM

Question: What about the inhibition [7] of the same molecule?
Answer: inactive

Question: What about the inhibition [8] of the same molecule?
Answer: 35.4%

Question: What does the source list for `N=C(N)NCCC[C@H](NC(=O)[C@@H]1C/C=C\C[C@@H]2NC(=O)[C@@H](NC(=O)CN)CSSC[C@H](NC(=O)[C@H](CCCNC(=N)N)NC(=O)[C@@H]3CCCN3C(=O)[C@H](CC(=O)O)NC(=O)[C@H](CO)NC2=O)C(=O)N[C@@H](CCCNC(=N)N)C(=O)N[C@@H](Cc2ccc(O)cc2)C(=O)N[C@@H](CCCNC(=N)N)C(=O)N1)C(=O)O` (H-GC[AllylGly]SDPRCRYR[AllylGly]R-OH; disulfide 2-8; staple (Z) 3-12)?
Answer: IC50 [5]: 1470 nM; inhibition [6]: inactive; inhibition [9]: inactive; inhibition [8]: 31.5%

Question: What does the source list for `N=C(N)NCCC[C@H](NC(=O)[C@@H]1CSSC[C@@H]2NC(=O)[C@@H](NC(=O)CN)C/C=C/C[C@H](NC(=O)[C@H](CCCNC(=N)N)NC(=O)[C@@H]3CCCN3C(=O)[C@H](CC(=O)O)NC(=O)[C@H](CO)NC2=O)C(=O)N[C@@H](CCCNC(=N)N)C(=O)N[C@@H](Cc2ccc(O)cc2)C(=O)N[C@@H](CCCNC(=N)N)C(=O)N1)C(=O)O`?
Answer: inhibition [10]: inactive; inhibition [2]: Active

Question: Which results are given for `N=C(N)NCCC[C@H](NC(=O)[C@@H]1CSSC[C@@H]2NC(=O)[C@@H](NC(=O)CN)C/C=C\C[C@H](NC(=O)[C@H](CCCNC(=N)N)NC(=O)[C@@H]3CCCN3C(=O)[C@H](CC(=O)O)NC(=O)[C@H](CO)NC2=O)C(=O)N[C@@H](CCCNC(=N)N)C(=O)N[C@@H](Cc2ccc(O)cc2)C(=O)N[C@@H](CCCNC(=N)N)C(=O)N1)C(=O)O`?
Answer: inhibition [10]: inactive; inhibition [11]: inactive; remaining at 24 h, 3000 µM [12]: 2%; inhibition [2]: Active; inhibition [13]: Active; inhibition [14]: Active; inhibition [15]: Dose-dependent effect; remaining at 1 h, 3000 µM [16]: 30%; inhibition [17]: inactive; inhibition [7]: 35%

Source: ChEMBL document CHEMBL3352353, “Dicarba analogues of α-conotoxin RgIA. Structure, stability, and activity at potential pain targets” (J Med Chem, 2014)
